According to ChEMBL document CHEMBL5724914, “Linking interpersonal differences in gut microbiota composition and drug biotransformation activity” (2024):

Assays:
[1] = The drug is tested on WLS-220 corresponding to human gut metagenome with ENA study accession number: PRJEB37062 and ENA sample accession number: ERS12561769 for biotransformation under anaerobic condition. The drug concentrations were measured over 9 timepoints collected between 0 and 24 hours of incubation by liquid-chromatography-coupled mass spectrometry (LC–MS); conditions: 2 µM
[2] = human gut metagenome, 24 h, 2 µM
[3] = The drug is tested on Z-001 corresponding to mouse gut metagenome with ENA study accession number: PRJEB37062 and ENA sample accession number: ERS12561801 for biotransformation under anaerobic condition. The drug concentrations were measured over 9 timepoints collected between 0 and 24 hours of incubation by liquid-chromatography-coupled mass spectrometry (LC–MS); conditions: 2 µM
[4] = The drug is tested on Z-028 corresponding to mouse gut metagenome with ENA study accession number: PRJEB37062 and ENA sample accession number: ERS12561827 for biotransformation under anaerobic condition. The drug concentrations were measured over 9 timepoints collected between 0 and 24 hours of incubation by liquid-chromatography-coupled mass spectrometry (LC–MS); conditions: 2 µM
[5] = The drug is tested on WLS-082 corresponding to human gut metagenome with ENA study accession number: PRJEB37062 and ENA sample accession number: ERS12561751 for biotransformation under anaerobic condition. The drug concentrations were measured over 9 timepoints collected between 0 and 24 hours of incubation by liquid-chromatography-coupled mass spectrometry (LC–MS); conditions: 2 µM
[6] = The drug is tested on Z-012 corresponding to metagenome with ENA study accession number: PRJEB37062 and ENA sample accession number: ERS12561812 for biotransformation under anaerobic condition. The drug concentrations were measured over 9 timepoints collected between 0 and 24 hours of incubation by liquid-chromatography-coupled mass spectrometry (LC–MS); conditions: 2 µM
[7] = human gut metagenome, 24 h, 2 µM; remark: listed apart in the source
[8] = human gut metagenome, 24 h, 2 µM; remark: listed apart in the source
[9] = The drug is tested on WLS-069 corresponding to human gut metagenome with ENA study accession number: PRJEB37062 and ENA sample accession number: ERS12561748 for biotransformation under anaerobic condition. The drug concentrations were measured over 9 timepoints collected between 0 and 24 hours of incubation by liquid-chromatography-coupled mass spectrometry (LC–MS); conditions: 2 µM
[10] = The drug is tested on Z-011 corresponding to mouse gut metagenome with ENA study accession number: PRJEB37062 and ENA sample accession number: ERS12561811 for biotransformation under anaerobic condition. The drug concentrations were measured over 9 timepoints collected between 0 and 24 hours of incubation by liquid-chromatography-coupled mass spectrometry (LC–MS); conditions: 2 µM
[11] = The drug is tested on Z-024 corresponding to pig gut metagenome with ENA study accession number: PRJEB37062 and ENA sample accession number: ERS12561823 for biotransformation under anaerobic condition. The drug concentrations were measured over 9 timepoints collected between 0 and 24 hours of incubation by liquid-chromatography-coupled mass spectrometry (LC–MS); conditions: 2 µM
[12] = The drug is tested on WLS-052 corresponding to human gut metagenome with ENA study accession number: PRJEB37062 and ENA sample accession number: ERS12561747 for biotransformation under anaerobic condition. The drug concentrations were measured over 9 timepoints collected between 0 and 24 hours of incubation by liquid-chromatography-coupled mass spectrometry (LC–MS); conditions: 2 µM
[13] = human gut metagenome, 24 h, 2 µM; remark: listed apart in the source
[14] = The drug is tested on Z-029 corresponding to rat gut metagenome with ENA study accession number: PRJEB37062 and ENA sample accession number: ERS12561828 for biotransformation under anaerobic condition. The drug concentrations were measured over 9 timepoints collected between 0 and 24 hours of incubation by liquid-chromatography-coupled mass spectrometry (LC–MS); conditions: 2 µM
[15] = human gut metagenome, 24 h, 2 µM; remark: listed apart in the source
[16] = human gut metagenome, 24 h, 2 µM; remark: listed apart in the source
[17] = The drug is tested on Z-018 corresponding to pig gut metagenome with ENA study accession number: PRJEB37062 and ENA sample accession number: ERS12561817 for biotransformation under anaerobic condition. The drug concentrations were measured over 9 timepoints collected between 0 and 24 hours of incubation by liquid-chromatography-coupled mass spectrometry (LC–MS); conditions: 2 µM
[18] = human gut metagenome, 24 h, 2 µM; remark: listed apart in the source
[19] = The drug is tested on WLS-010 corresponding to human gut metagenome with ENA study accession number: PRJEB37062 and ENA sample accession number: ERS12561743 for biotransformation under anaerobic condition. The drug concentrations were measured over 9 timepoints collected between 0 and 24 hours of incubation by liquid-chromatography-coupled mass spectrometry (LC–MS); conditions: 2 µM
[20] = The drug is tested on Z-020 corresponding to rabbit gut metagenome with ENA study accession number: PRJEB37062 and ENA sample accession number: ERS12561819 for biotransformation under anaerobic condition. The drug concentrations were measured over 9 timepoints collected between 0 and 24 hours of incubation by liquid-chromatography-coupled mass spectrometry (LC–MS); conditions: 2 µM
Further: call rule not given here.

CN1CCc2c(c3ccccc3n2Cc2ccccc2)C1.CN1CCc2c(c3ccccc3n2Cc2ccccc2)C1.O=S(=O)(O)c1cccc2c(S(=O)(=O)O)cccc12
Bacterial Biotransformation [1]: Compound metabolized | Bacterial Biotransformation [2]: Compound metabolized | Bacterial Biotransformation [3]: Compound NOT metabolized | Bacterial Biotransformation [4]: Compound NOT metabolized | Bacterial Biotransformation [5]: Compound NOT metabolized | Bacterial Biotransformation [6]: Compound NOT metabolized | Bacterial Biotransformation [7]: Compound NOT metabolized | Bacterial Biotransformation [8]: Compound metabolized | Bacterial Biotransformation [9]: Compound NOT metabolized | Bacterial Biotransformation [10]: Compound NOT metabolized | Bacterial Biotransformation [11]: Compound metabolized | Bacterial Biotransformation [12]: Compound NOT metabolized | Bacterial Biotransformation [13]: Compound NOT metabolized | Bacterial Biotransformation [14]: Compound NOT metabolized | Bacterial Biotransformation [15]: Compound NOT metabolized | Bacterial Biotransformation [16]: Compound metabolized | Bacterial Biotransformation [17]: Compound NOT metabolized | Bacterial Biotransformation [18]: Compound metabolized | Bacterial Biotransformation [19]: Compound NOT metabolized | Bacterial Biotransformation [20]: Compound NOT metabolized

COc1cc2nc(N(C)CCCNC(=O)C3CCCO3)nc(N)c2cc1OC (stereo not given) [ALFUZOSIN]
Bacterial Biotransformation [1]: Compound metabolized | Bacterial Biotransformation [2]: Compound metabolized | Bacterial Biotransformation [3]: Compound metabolized | Bacterial Biotransformation [4]: Compound NOT metabolized | Bacterial Biotransformation [5]: Compound metabolized | Bacterial Biotransformation [6]: Compound NOT metabolized | Bacterial Biotransformation [7]: Compound metabolized | Bacterial Biotransformation [8]: Compound metabolized | Bacterial Biotransformation [9]: Compound metabolized | Bacterial Biotransformation [10]: Compound metabolized | Bacterial Biotransformation [11]: Compound NOT metabolized | Bacterial Biotransformation [12]: Compound metabolized | Bacterial Biotransformation [13]: Compound NOT metabolized | Bacterial Biotransformation [14]: Compound NOT metabolized | Bacterial Biotransformation [15]: Compound metabolized | Bacterial Biotransformation [16]: Compound metabolized | Bacterial Biotransformation [17]: Compound metabolized | Bacterial Biotransformation [18]: Compound metabolized | Bacterial Biotransformation [19]: Compound metabolized | Bacterial Biotransformation [20]: Compound NOT metabolized

NC12CC3CC(CC(C3)C1)C2 [AMANTADINE]
Bacterial Biotransformation [1]: Compound NOT metabolized | Bacterial Biotransformation [2]: Compound NOT metabolized | Bacterial Biotransformation [3]: Compound NOT metabolized | Bacterial Biotransformation [4]: Compound NOT metabolized | Bacterial Biotransformation [5]: Compound NOT metabolized | Bacterial Biotransformation [6]: Compound NOT metabolized | Bacterial Biotransformation [7]: Compound NOT metabolized | Bacterial Biotransformation [8]: Compound NOT metabolized | Bacterial Biotransformation [9]: Compound NOT metabolized | Bacterial Biotransformation [10]: Compound NOT metabolized | Bacterial Biotransformation [11]: Compound NOT metabolized | Bacterial Biotransformation [12]: Compound NOT metabolized | Bacterial Biotransformation [13]: Compound NOT metabolized | Bacterial Biotransformation [14]: Compound NOT metabolized | Bacterial Biotransformation [15]: Compound NOT metabolized | Bacterial Biotransformation [16]: Compound NOT metabolized | Bacterial Biotransformation [17]: Compound NOT metabolized | Bacterial Biotransformation [18]: Compound NOT metabolized | Bacterial Biotransformation [19]: Compound NOT metabolized | Bacterial Biotransformation [20]: Compound NOT metabolized

CC(C)(C#N)c1cc(Cn2cncn2)cc(C(C)(C)C#N)c1 [ANASTROZOLE]
Bacterial Biotransformation [1]: Compound metabolized | Bacterial Biotransformation [2]: Compound metabolized | Bacterial Biotransformation [3]: Compound NOT metabolized | Bacterial Biotransformation [4]: Compound NOT metabolized | Bacterial Biotransformation [5]: Compound NOT metabolized | Bacterial Biotransformation [6]: Compound NOT metabolized | Bacterial Biotransformation [7]: Compound NOT metabolized | Bacterial Biotransformation [8]: Compound NOT metabolized | Bacterial Biotransformation [9]: Compound metabolized | Bacterial Biotransformation [10]: Compound NOT metabolized | Bacterial Biotransformation [11]: Compound metabolized | Bacterial Biotransformation [12]: Compound NOT metabolized | Bacterial Biotransformation [13]: Compound NOT metabolized | Bacterial Biotransformation [14]: Compound NOT metabolized | Bacterial Biotransformation [15]: Compound metabolized | Bacterial Biotransformation [16]: Compound NOT metabolized | Bacterial Biotransformation [17]: Compound NOT metabolized | Bacterial Biotransformation [18]: Compound metabolized | Bacterial Biotransformation [19]: Compound NOT metabolized | Bacterial Biotransformation [20]: Compound NOT metabolized

O=P(O)(O)O.c1ccc(CN(CC2=NCCN2)c2ccccc2)cc1 [ANTAZOLINE PHOSPHATE]
Bacterial Biotransformation [1]: Compound metabolized | Bacterial Biotransformation [2]: Compound metabolized | Bacterial Biotransformation [3]: Compound NOT metabolized | Bacterial Biotransformation [4]: Compound NOT metabolized | Bacterial Biotransformation [5]: Compound NOT metabolized | Bacterial Biotransformation [6]: Compound NOT metabolized | Bacterial Biotransformation [7]: Compound NOT metabolized | Bacterial Biotransformation [8]: Compound NOT metabolized | Bacterial Biotransformation [9]: Compound NOT metabolized | Bacterial Biotransformation [10]: Compound NOT metabolized | Bacterial Biotransformation [11]: Compound metabolized | Bacterial Biotransformation [12]: Compound NOT metabolized | Bacterial Biotransformation [13]: Compound NOT metabolized | Bacterial Biotransformation [14]: Compound NOT metabolized | Bacterial Biotransformation [15]: Compound metabolized | Bacterial Biotransformation [16]: Compound NOT metabolized | Bacterial Biotransformation [17]: Compound NOT metabolized | Bacterial Biotransformation [18]: Compound metabolized | Bacterial Biotransformation [19]: Compound NOT metabolized | Bacterial Biotransformation [20]: Compound NOT metabolized
